Results reported in patent publication US9346798B2, “Dihydrobenzoxazine and tetrahydroquinoxaline sodium channel inhibitors” (AMGEN INC., priority 2012, dated 2016).

target: Nav 1.5 (Homo sapiens (Human), UniProt Q14524); experiment: Nav 1.5 in vitro assay, IonWorks Quattro (IWQ) population patch-clamp; assay type: cell-based; conditions: HEK 293 cells stably transfected with Nav 1.5; 26th pulse to -20 mV
Procedure: (§1) Nav 1.7 and Nav 1.5 In Vitro Assays
(§2) HEK 293 cells stably transfected with either Nav 1.7 or with Nav 1.5 were recorded in population patch-clamp mode with the IonWorks® Quattro automated electrophysiology system in accordance with the manufacturer's specifications (Molecular Devices, LLC, Sunnyvale, Calif.). Sodium channel currents were measured in response to a train of depolarizations that induced successively greater inactivation.
(§3) Cells were held at −110 mV for three seconds (Nav 1.7) or half a second (Nav 1.5) from a holding voltage of −15 mV, then put through a series of 26 pulses of 150 msec duration to −20 mV at a frequency of 5 Hz. Cells were then left unclamped for a period of 3 to 8 minutes while a single concentration of test compound was added. Cells were then reclamped and put through the same voltage protocol. Current at the end of the 26th pulse to −20 mV was subtracted from the peak current evoked by the 26th pulse to −20 mV to correct for leak current. Percent block was calculated for each concentration in duplicate, and IC50 curves were fitted to percent block as a function of concentration.

Nav 1.5, sequence (Q14524 whole entry): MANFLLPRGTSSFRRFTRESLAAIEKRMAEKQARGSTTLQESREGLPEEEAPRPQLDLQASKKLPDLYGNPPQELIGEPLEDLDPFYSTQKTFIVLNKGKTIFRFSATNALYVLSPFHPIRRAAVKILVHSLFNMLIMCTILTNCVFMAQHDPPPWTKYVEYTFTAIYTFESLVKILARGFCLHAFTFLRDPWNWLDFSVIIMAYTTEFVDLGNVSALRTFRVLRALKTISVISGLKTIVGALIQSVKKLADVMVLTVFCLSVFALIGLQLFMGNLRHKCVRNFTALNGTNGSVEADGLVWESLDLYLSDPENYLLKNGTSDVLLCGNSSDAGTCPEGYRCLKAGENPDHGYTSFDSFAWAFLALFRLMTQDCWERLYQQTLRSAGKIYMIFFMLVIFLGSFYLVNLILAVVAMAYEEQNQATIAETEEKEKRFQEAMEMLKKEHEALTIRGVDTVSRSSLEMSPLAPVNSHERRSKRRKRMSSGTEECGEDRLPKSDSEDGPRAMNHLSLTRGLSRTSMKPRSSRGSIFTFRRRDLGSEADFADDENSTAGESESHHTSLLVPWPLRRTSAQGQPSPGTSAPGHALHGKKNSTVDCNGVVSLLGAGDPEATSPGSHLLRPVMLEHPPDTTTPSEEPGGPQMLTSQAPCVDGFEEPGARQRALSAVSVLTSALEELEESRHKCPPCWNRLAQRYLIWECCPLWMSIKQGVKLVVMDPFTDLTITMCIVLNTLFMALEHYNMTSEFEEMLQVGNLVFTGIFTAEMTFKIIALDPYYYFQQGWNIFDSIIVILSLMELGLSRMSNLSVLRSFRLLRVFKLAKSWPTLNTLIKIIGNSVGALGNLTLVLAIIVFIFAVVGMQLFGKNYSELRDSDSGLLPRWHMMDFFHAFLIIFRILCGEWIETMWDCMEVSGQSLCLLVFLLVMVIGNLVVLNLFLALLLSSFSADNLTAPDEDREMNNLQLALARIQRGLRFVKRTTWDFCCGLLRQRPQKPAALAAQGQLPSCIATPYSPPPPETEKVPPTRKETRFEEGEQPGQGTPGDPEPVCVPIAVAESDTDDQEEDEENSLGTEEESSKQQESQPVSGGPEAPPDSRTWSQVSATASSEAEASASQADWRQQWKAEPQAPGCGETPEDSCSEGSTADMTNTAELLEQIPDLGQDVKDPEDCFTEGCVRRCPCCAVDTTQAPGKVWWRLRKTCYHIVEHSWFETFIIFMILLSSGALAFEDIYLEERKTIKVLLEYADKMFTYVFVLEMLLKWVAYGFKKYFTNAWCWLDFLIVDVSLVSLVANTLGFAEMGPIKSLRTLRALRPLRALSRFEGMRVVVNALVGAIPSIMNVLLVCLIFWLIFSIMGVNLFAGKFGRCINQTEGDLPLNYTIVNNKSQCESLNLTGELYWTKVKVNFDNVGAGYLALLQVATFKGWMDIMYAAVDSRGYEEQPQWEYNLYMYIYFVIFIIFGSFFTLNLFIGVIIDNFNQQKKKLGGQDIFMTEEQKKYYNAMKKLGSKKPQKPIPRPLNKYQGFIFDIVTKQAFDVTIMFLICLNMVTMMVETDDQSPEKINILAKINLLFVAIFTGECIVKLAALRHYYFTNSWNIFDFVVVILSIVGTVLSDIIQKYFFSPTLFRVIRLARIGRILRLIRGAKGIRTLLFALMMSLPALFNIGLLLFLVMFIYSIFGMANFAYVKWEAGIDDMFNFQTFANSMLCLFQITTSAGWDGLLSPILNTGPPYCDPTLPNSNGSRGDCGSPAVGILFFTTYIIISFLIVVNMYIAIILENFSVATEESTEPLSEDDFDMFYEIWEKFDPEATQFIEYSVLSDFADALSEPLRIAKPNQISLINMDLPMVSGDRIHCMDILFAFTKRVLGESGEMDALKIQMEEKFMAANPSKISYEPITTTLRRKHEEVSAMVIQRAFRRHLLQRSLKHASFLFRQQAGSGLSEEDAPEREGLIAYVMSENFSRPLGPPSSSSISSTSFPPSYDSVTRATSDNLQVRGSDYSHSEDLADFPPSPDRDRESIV

SMILES | IC50 [µM]
N#Cc1ccc(F)c(N2CCOc3cc(S(=O)(=O)Nc4nccs4)ccc32)c1 [Example 164, 4-(5-Cyano-2-Fluorophenyl)-N-(Thiazol-2-Yl)-3,4-Dihydro-2H-Benzo[B][1,4]Oxazine-7-Sulfonamide 2,2,2-Trifluoroacetate] | > 10
COc1ccc(N2CCOc3cc(S(=O)(=O)Nc4nccs4)ccc32)cc1OC [Example 119, 4-(3,4-Dimethoxyphenyl)-N-(thiazol-2-yl)-3,4-dihydro-2H-benzo[b][1,4]oxazine-7-sulfonamide] | > 10
N#Cc1ccc(F)cc1N1CCOc2cc(S(=O)(=O)Nc3nccs3)ccc21 [Example 188, 4-(2-Cyano-5-Fluorophenyl)-N-(Thiazol-2-Yl)-3,4-Dihydro-2H-Benzo[B][1,4]Oxazine-7-Sulfonamide] | 3.62
Cc1cc(N2CCOc3cc(S(=O)(=O)Nc4nccs4)ccc32)cc(C)c1N(C)C [Example 161, 4-(4-(Dimethylamino)-3,5-Dimethylphenyl)-N-(Thiazol-2-Yl)-3,4-Dihydro-2H-Benzo[B][1,4]Oxazine-7-Sulfonamide 2,2,2-Trifluoroacetate] | 3.49
O=S(=O)(Nc1nccs1)c1ccc2c(c1)OCCN2c1cccc(Cl)c1Cl [Example 171, 4-(2,3-Dichlorophenyl)-N-(Thiazol-2-Yl)-3,4-Dihydro-2H-Benzo[B][1,4]Oxazine-7-Sulfonamide 2,2,2-Trifluoroacetate] | 6.44
Cc1ccc(N2CCOc3cc(S(=O)(=O)Nc4nccs4)ccc32)c(C)n1 [Example 132, 4-(2,6-Dimethylpyridin-3-yl)-N-(thiazol-2-yl)-3,4-dihydro-2H-benzo[b][1,4]oxazine-7-sulfonamide] | > 10
O=S(=O)(Nc1nccs1)c1ccc2c(c1)OCCN2c1ccc(C(F)(F)F)cc1C1=CCNCC1 [Example 38, 4-(2-(1,2,3,6-Tetrahydropyridin-4-Yl)-4-(Trifluoromethyl)Phenyl)-N-(Thiazol-2-Yl)-3,4-Dihydro-2H-Benzo[B][1,4]Oxazine-7-Sulfonamide 2,2,2-Trifluoroacetate] | 0.254
COc1ccc(N2CCOc3cc(S(=O)(=O)Nc4nccs4)ccc32)c(C#N)c1 [Example 153, 4-(2-Cyano-4-Methoxyphenyl)-N-(Thiazol-2-Yl)-3,4-Dihydro-2H-Benzo[B][1,4]Oxazine-7-Sulfonamide 2,2,2-Trifluoroacetate] | > 10
O=S(=O)(Nc1nccs1)c1ccc2c(c1)OCCN2c1ccc(-n2ccnc2)cc1 [Example 154, 4-(4-(1H-Imidazol-1-Yl)Phenyl)-N-(Thiazol-2-Yl)-3,4-Dihydro-2H-Benzo[B][1,4]Oxazine-7-Sulfonamide 2,2,2-Trifluoroacetate] | > 10
COc1cccc(N2CCOc3cc(S(=O)(=O)Nc4nccs4)ccc32)c1 [Example 77, 4-(3-Methoxyphenyl)-N-(Thiazol-2-Yl)-3,4-Dihydro-2H-Benzo[B][1,4]Oxazine-7-Sulfonamide 2,2,2-Trifluoroacetate] | > 10
CCOc1cccc(N2CCOc3cc(S(=O)(=O)Nc4nccs4)ccc32)c1 [Example 162, 4-(3-Ethoxyphenyl)-N-(Thiazol-2-Yl)-3,4-Dihydro-2H-Benzo[B][1,4]Oxazine-7-Sulfonamide 2,2,2-Trifluoroacetate] | > 10
Cc1c(Cl)cccc1N1CCOc2cc(S(=O)(=O)Nc3nccs3)ccc21 [Example 169, 4-(3-Chloro-2-Methylphenyl)-N-(Thiazol-2-Yl)-3,4-Dihydro-2H-Benzo[B][1,4]Oxazine-7-Sulfonamide 2,2,2-Trifluoroacetate] | > 10
Cc1ccc(N2CCOc3cc(S(=O)(=O)Nc4nccs4)ccc32)cc1F [Example 82, 4-(3-Fluoro-4-Methylphenyl)-N-(Thiazol-2-Yl)-3,4-Dihydro-2H-Benzo[B][1,4]Oxazine-7-Sulfonamide 2,2,2-Trifluoroacetate] | > 10
CN1CC=C(c2cc(C(F)(F)F)ccc2N2CCOc3cc(S(=O)(=O)Nc4ccncn4)ccc32)CC1 [Example 51, 4-(2-(1-Methyl-1,2,3,6-Tetrahydropyridin-4-Yl)-4-(Trifluoromethyl)Phenyl)-N-(Pyrimidin-4-Yl)-3,4-Dihydro-2H-Benzo[B][1,4]Oxazine-7-Sulfonamide] | > 10
CC(C)(C)OC(=O)N1CC=C(c2cc(C(F)(F)F)ccc2N2CCOc3cc(S(=O)(=O)Nc4ncns4)ccc32)CC1 [Example 6, Tert-Butyl 4-(2-(7-(N-(1,2,4-Thiadiazol-5-Yl)Sulfamoyl)-2H-Benzo[B][1,4]Oxazin-4(3H)-Yl)-5-(Trifluoromethyl)Phenyl)-5,6-Dihydropyridine-1(2H)-Carboxylate] | 2.29
O=S(=O)(Nc1nccs1)c1ccc2c(c1)OCCN2c1cc(F)ccc1F [Example 83, 4-(2,5-Difluorophenyl)-N-(Thiazol-2-Yl)-3,4-Dihydro-2H-Benzo[B][1,4]Oxazine-7-Sulfonamide 2,2,2-Trifluoroacetate] | > 10
O=S(=O)(Nc1nccs1)c1ccc2c(c1)OCCN2c1cccc2scnc12 [Example 72, 4-(Benzo[D]Thiazol-4-Yl)-N-(Thiazol-2-Yl)-3,4-Dihydro-2H-Benzo[B][1,4]Oxazine-7-Sulfonamide 2,2,2-Trifluoroacetate] | > 10
O=S(=O)(Nc1nccs1)c1ccc2c(c1)OCCN2c1ncc(Cl)cc1Cl [Example 121, 4-(3,5-Dichloropyridin-2-yl)-N-(thiazol-2-yl)-3,4-dihydro-2H-benzo[b][1,4]oxazine-7-sulfonamide] | > 10
O=S(=O)(Nc1nccs1)c1ccc2c(c1)OCCN2c1ccccc1C(F)(F)F [Example 157, N-(Thiazol-2-Yl)-4-(2-(Trifluoromethyl)Phenyl)-3,4-Dihydro-2H-Benzo[B][1,4]Oxazine-7-Sulfonamide 2,2,2-Trifluoroacetate] | > 10
O=C1CCCc2ccc(N3CCOc4cc(S(=O)(=O)Nc5nccs5)ccc43)cc21 [Example 160, 4-(8-Oxo-5,6,7,8-Tetrahydronaphthalen-2-Yl)-N-(Thiazol-2-Yl)-3,4-Dihydro-2H-Benzo[B][1,4]Oxazine-7-Sulfonamide 2,2,2-Trifluoroacetate] | > 10
Cc1ccc(N2CCOc3cc(S(=O)(=O)Nc4nccs4)ccc32)cc1Cl [Example 163, 4-(3-Chloro-4-Methylphenyl)-N-(Thiazol-2-Yl)-3,4-Dihydro-2H-Benzo[B][1,4]Oxazine-7-Sulfonamide 2,2,2-Trifluoroacetate] | 3.14
O=S(=O)(Nc1nccs1)c1ccc2c(c1)OCCN2c1ccc(F)cc1F [Example 176, 4-(2,4-Difluorophenyl)-N-(Thiazol-2-Yl)-3,4-Dihydro-2H-Benzo[B][1,4]Oxazine-7-Sulfonamide 2,2,2-Trifluoroacetate] | > 10

target: T1, Nav 1.7 (Homo sapiens (Human), UniProt Q15858); experiment: Nav 1.7 in vitro assay, IonWorks Quattro (IWQ) population patch-clamp; assay type: cell-based; conditions: HEK 293 cells stably transfected with Nav 1.7; 26th pulse to -20 mV
T1 sequence (Q15858 whole entry): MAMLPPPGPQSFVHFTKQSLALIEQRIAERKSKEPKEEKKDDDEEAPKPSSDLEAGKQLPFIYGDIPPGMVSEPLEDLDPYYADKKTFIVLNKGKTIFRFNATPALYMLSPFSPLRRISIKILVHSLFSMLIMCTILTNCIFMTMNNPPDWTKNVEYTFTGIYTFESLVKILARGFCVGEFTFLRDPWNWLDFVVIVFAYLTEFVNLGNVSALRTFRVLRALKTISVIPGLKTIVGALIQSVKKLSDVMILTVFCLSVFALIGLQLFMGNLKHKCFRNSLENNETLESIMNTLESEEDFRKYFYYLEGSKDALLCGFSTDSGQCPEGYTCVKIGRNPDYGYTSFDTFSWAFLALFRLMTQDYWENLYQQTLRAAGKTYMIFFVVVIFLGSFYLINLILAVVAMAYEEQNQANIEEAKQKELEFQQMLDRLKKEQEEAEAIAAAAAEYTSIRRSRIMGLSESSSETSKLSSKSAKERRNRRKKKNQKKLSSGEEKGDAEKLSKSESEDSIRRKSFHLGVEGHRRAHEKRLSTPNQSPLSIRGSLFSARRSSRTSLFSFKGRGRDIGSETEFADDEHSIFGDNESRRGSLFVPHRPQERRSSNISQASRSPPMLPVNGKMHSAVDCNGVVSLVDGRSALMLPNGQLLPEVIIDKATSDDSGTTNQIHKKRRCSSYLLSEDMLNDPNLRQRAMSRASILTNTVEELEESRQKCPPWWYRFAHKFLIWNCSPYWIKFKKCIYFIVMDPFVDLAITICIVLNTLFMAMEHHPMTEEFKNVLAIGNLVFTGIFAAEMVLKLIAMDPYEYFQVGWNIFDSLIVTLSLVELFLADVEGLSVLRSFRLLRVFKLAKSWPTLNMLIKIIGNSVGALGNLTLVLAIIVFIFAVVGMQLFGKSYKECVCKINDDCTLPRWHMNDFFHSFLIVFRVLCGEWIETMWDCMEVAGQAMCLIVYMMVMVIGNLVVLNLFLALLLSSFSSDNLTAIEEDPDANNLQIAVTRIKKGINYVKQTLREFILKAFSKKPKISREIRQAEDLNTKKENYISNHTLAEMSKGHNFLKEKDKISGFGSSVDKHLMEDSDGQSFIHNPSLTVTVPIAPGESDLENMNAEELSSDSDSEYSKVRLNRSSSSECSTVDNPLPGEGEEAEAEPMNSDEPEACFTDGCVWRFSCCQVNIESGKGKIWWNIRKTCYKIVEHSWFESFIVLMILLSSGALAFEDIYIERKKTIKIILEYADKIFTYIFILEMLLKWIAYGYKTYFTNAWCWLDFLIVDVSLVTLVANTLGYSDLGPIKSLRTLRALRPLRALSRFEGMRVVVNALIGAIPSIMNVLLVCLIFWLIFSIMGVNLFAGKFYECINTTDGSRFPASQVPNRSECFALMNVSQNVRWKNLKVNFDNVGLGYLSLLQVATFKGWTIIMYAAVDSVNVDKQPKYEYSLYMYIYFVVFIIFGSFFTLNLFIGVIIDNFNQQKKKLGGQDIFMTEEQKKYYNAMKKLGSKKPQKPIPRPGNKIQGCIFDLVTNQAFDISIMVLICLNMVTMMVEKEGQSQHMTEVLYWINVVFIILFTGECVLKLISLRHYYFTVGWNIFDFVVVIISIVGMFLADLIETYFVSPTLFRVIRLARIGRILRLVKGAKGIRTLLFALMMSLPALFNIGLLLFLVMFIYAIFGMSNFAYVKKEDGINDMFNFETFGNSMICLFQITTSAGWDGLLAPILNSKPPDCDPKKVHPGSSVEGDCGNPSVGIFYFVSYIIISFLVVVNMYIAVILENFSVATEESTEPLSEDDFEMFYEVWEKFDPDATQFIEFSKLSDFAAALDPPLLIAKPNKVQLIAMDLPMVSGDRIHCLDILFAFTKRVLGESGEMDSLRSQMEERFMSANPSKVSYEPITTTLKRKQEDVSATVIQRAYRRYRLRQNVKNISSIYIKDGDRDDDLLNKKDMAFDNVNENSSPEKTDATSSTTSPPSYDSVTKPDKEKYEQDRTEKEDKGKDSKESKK
Procedure: as §1, §2, §3

SMILES | IC50 [µM]
COc1ccc(N2CCOc3cc(S(=O)(=O)Nc4nccs4)ccc32)cc1OC [Example 119, 4-(3,4-Dimethoxyphenyl)-N-(thiazol-2-yl)-3,4-dihydro-2H-benzo[b][1,4]oxazine-7-sulfonamide] | 2.53
Cc1ccc(N2CCOc3cc(S(=O)(=O)Nc4nccs4)ccc32)c(C)n1 [Example 132, 4-(2,6-Dimethylpyridin-3-yl)-N-(thiazol-2-yl)-3,4-dihydro-2H-benzo[b][1,4]oxazine-7-sulfonamide] | 3.56
CC(=O)N1CCN(c2ccc(C(F)(F)F)cc2Cl)c2ccc(S(=O)(=O)Nc3ncns3)cc21 [Example 20, 4-Acetyl-1-(2-Chloro-4-(Trifluoromethyl)Phenyl)-N-(1,2,4-Thiadiazol-5-Yl)-1,2,3,4-Tetrahydroquinoxaline-6-Sulfonamide] | 7.6
O=S(=O)(Nc1nccs1)c1ccc2c(c1)OCCN2c1ccc(Cl)cc1C1=CCNCC1 [Example 52, 4-(4-Chloro-2-(1,2,3,6-Tetrahydropyridin-4-Yl)Phenyl)-N-(Thiazol-2-Yl)-3,4-Dihydro-2H-Benzo[B][1,4]Oxazine-7-Sulfonamide 2,2,2-Trifluoroacetate] | 0.0045

target: T1, Nav 1.7; experiment: Nav 1.7 in vitro PX assay, PatchXpress whole cell voltage clamp; assay type: cell-based; conditions: HEK293; values marked *; 4.9 μM; HEK 293 cells stably transfected with human Nav1.7; read-out: Nav 1.7 PX percent inhibition at 4.9 μM
Procedure: Nav 1.7 In Vitro PX Assay
HEK 293 cells stably transfected with human Nav1.7 were recorded in whole cell voltage clamp mode with the PatchXpress automated electrophysiology system (Molecular Devices, LLC, Sunnyvale, Calif.). Compound effects were measured on a partially inactivated state of the sodium channel. Cells were clamped to a holding potential yielding 20 to 50% inactivation. To elicit sodium current, channels were activated by pulsing to −10 mV for 20 msec. This voltage protocol was repeated at a rate of 0.1 Hz throughout the experiment. A single concentration of test compound was applied to cells for a duration of 3 minutes. Peak sodium current was measured at the end of the compound addition period to determine percent inhibition. Three to five cells were tested per concentration, and IC50 curves were fitted to percent inhibition as a function of concentration.

SMILES | inhibition at 4.9 µM [%]
CC(=O)N1CCN(c2ccc(C(F)(F)F)cc2Cl)c2ccc(S(=O)(=O)Nc3ncns3)cc21 [Example 20, 4-Acetyl-1-(2-Chloro-4-(Trifluoromethyl)Phenyl)-N-(1,2,4-Thiadiazol-5-Yl)-1,2,3,4-Tetrahydroquinoxaline-6-Sulfonamide] | 33.2

same assay, conditions: HEK 293 cells stably transfected with human Nav1.7; partially inactivated state (20 to 50% inactivation)

SMILES | IC50 [µM]
O=S(=O)(Nc1nccs1)c1ccc2c(c1)OCCN2c1ccc(Cl)cc1C1=CCNCC1 [Example 52, 4-(4-Chloro-2-(1,2,3,6-Tetrahydropyridin-4-Yl)Phenyl)-N-(Thiazol-2-Yl)-3,4-Dihydro-2H-Benzo[B][1,4]Oxazine-7-Sulfonamide 2,2,2-Trifluoroacetate] | 0.0355
COc1cc(C(F)(F)F)ccc1N1C(=O)C(C)Oc2cc(S(=O)(=O)Nc3nccs3)ccc21 (racemic) [Example 263, (+/−)-4-(2-methoxy-4-(trifluoromethyl)phenyl)-2-methyl-3-oxo-N-(thiazol-2-yl)-3,4-dihydro-2H-benzo[b][1,4]oxazine-7-sulfonamide] | 0.457
COc1cc(C(F)(F)F)ccc1N1C(=O)[C@@H](C)Oc2cc(S(=O)(=O)Nc3nccs3)ccc21 [Example 265, (R)-4-(2-Methoxy-4-(Trifluoromethyl)Phenyl)-2-Methyl-3-Oxo-N-(Thiazol-2-Yl)-3,4-Dihydro-2H-Benzo[B][1,4]Oxazine-7-Sulfonamide] | 0.728
N#Cc1cc(C(F)(F)F)ccc1N1C(=O)COc2cc(S(=O)(=O)Nc3nccs3)ccc21 [Example 234, 4-(2-Cyano-4-(Trifluoromethyl)Phenyl)-3-Oxo-N-(Thiazol-2-Yl)-3,4-Dihydro-2H-Benzo[B][1,4]Oxazine-7-Sulfonamide] | 1.45
COc1ccccc1N1CCOc2cc(S(=O)(=O)Nc3ncns3)ccc21 [Example 238, 4-(2-Methoxyphenyl)-N-(1,2,4-Thiadiazol-5-Yl)-3,4-Dihydro-2H-Benzo[B][1,4]Oxazine-7-Sulfonamide] | 0.135
